Reference: patent US20250032651A1, “[177LU] LUTETIUM-PSMA I&T COMPOSITION AND DOSIMETRY, KIT, METHOD OF MAKING, AND METHOD OF USING THEREOF” (Curium US LLC, priority 2022, published 2025)

Assay: Normal organ dosimetry Cycle 1: SPECT/CT, TIACs, OLINDA 2.2.3 absorbed radiation dose
Type: in vivo, human
Conditions: for Absorbed Dose, Mean / Absorbed Dose, max / Absorbed Dose, median / Absorbed Dose, min: n = 26
Description: This Example presents the biodistribution, dosimetry, and pharmacokinetics (PK) results of a PK/Dosimetry sub-study performed as part of a Phase III trial. Twenty-seven (27) patients were administered a target activity of 7.4±10% GBq of ^177Lu-PSMA-I&T and underwent single photon emission computed tomography (SPECT)/computed tomography (CT) imaging at four timepoints (4 h, 24 h, 48 h, and 168 h). Image data was analysed to compute time-activity curves (TACs) and subsequently time-integrated activity coefficients (TIACs) in each organ of interest and in organs showing appreciable and meaningful ^177Lu-PSMA-I&T activity. Organ Level Internal Dose Assessment (OLINDA 2.2.3) was used to compute organ and whole body absorbed radiation doses for each patient.
All participating sites underwent a rigorous site setup process during which all dose calibrators, scanners, and gamma counters used in the sub-study were calibrated. Sites were allowed to enroll patients in the sub-study only after the completion and approval of all site setup processes by Invicro. Patients underwent SPECT/CT imaging, with anatomical coverage typically extending from the salivary glands to the pelvis, following the administration of a targeted 7.4±10% GBq of ^177Lu-PSMA-I&T at cycle 1. SPECT/CT imaging was performed at four timepoints: 4 h, 24 h, 48 h, and 168 h post-injection. Additionally, a subset of patients imaged at Cycle 1 (16 out of 27), were also imaged at Cycle 3 (Table 2).
The imaging data was analyzed using Invicro's VivoQuant software, a validated software used in a 21 CFR § 11-compliant workflow. The general quantification approach was based on the principles detailed in the Medical Internal Radiation Dose (MIRD) Pamphlet No. 16, No 23, and No 26 as appropriate.
Volume of interest (VOI) (kidneys, bladder, liver, lumbar vertebrae L2-L4, lacrimal glands, salivary glands [parotid and submandibular glands], and whole body) were delineated on each dataset by a trained image analyst. […] Organs were segmented either by drawing the entire contour of the organ, or by placing a sphere in a representative region of the organ and then multiplying by the organ's effective mass (based on patient's height and weight). Segmentation methods for each organ are specified in Table 3 and were consistently applied to each patient.
Clearance of the radiopharmaceutical was derived from a data-appropriate fit of each organ's TAC. Depending on the TAC's shape, the data was fitted with the sum of one, two, or three exponentials, or using a rise and fall model. Fitting was performed with in-house Python software. TIACs were calculated through analytical integration of the curve fit extrapolated to infinity. […] A whole-body TAC was derived from delineating the imaged body. The remainder activity was determined by subtracting the cumulative organ TIACs from the whole body TIAC.
Organ TIACs were input into OLINDA 2.2.3 for the computation of organ and whole-body absorbed doses, using International Commission on Radiological Protection (ICRP)-103 weighing factors. The ICRP-89 derived male phantom was used for dose estimation. Organs and body mass as defined by ICRP-89 were scaled based on height and mass using patient effective mass.^4 The voiding bladder model as implemented in OLINDA was used to determine bladder TIAC, assuming a voiding interval of 4 hours. The human alimentary tract model (HAT model) described in ICRP 100 and implemented in OLINDA was used to compute doses to the small intestine, right colon, left colon and rectum for patients showing clearance through the GI tract. The fraction of injected activity (fIA) cleared via the GI tract was determined by taking the peak fIA in the GI tract over all the imaging timepoints. […] The Red Marrow mass in L2-L4 was assumed to be 6.7% of the total red marrow mass.

[1] = Adrenals, 16 patients imaged at cycle 1 and 3
[2] = Brain, 16 patients imaged at cycle 1 and 3
[3] = Cycle 1, target activity 7.4±10% GBq, patients with mCRPC
[4] = Esophagus, 16 patients imaged at cycle 1 and 3
[5] = Eyes, 16 patients imaged at cycle 1 and 3
[6] = Gallbladder wall, 16 patients imaged at cycle 1 and 3
[7] = Heart wall, 16 patients imaged at cycle 1 and 3
[8] = Kidneys, 16 patients imaged at cycle 1 and 3
[9] = Lacrimal Glands (OLINDA sphere model), 16 patients imaged at cycle 1 and 3
[10] = Lacrimal Glands, N = 16, OLINDA sphere model
[11] = Left colon, 16 patients imaged at cycle 1 and 3
[12] = Liver, 16 patients imaged at cycle 1 and 3
[13] = Lungs, 16 patients imaged at cycle 1 and 3
[14] = Osteogenic cells, 16 patients imaged at cycle 1 and 3
[15] = Pancreas, 16 patients imaged at cycle 1 and 3

O=C([O-])CC[C@H](NC(=O)N[C@@H](CCCCNC(=O)CCCCCCC(=O)NCCCC[C@@H](NC(=O)[C@@H](Cc1ccccc1)NC(=O)[C@@H](Cc1ccc(O)c(I)c1)NC(=O)CC[C@H](C(=O)[O-])N1CCN(CC(=O)[O-])CCN(CC(=O)[O-])CCN(CC(=O)[O-])CC1)C(=O)[O-])C(=O)[O-])C(=O)[O-].[177Lu+3].[H+].[H+].[H+].[H+].[H+] [^177Lu-PSMA I&T, (3S,7S,26R,29R,32R,37R)-29-benzyl-32-(4-hydroxy-3-iodobenzyl)-5,13,20,28,31,34-hexaoxo-37-(4,7,10-tris(carboxymethyl)-1,4,7,10-tetraazacyclododecan-1-yl)-4,6,12,21,27,30,33-heptaazaheptatriacontane-1,3,7,26,37-pentacarboxylic acid; lutetium-177 (III)]
0.00 Gy/GBq: Absorbed Dose in Cycle 1, min [2] | Absorbed Dose, min (Brain, Cycle 1) | Absorbed Dose in Cycle 1, min (Brain, N = 16) | Absorbed Dose in Cycle 1, min [4] | Absorbed Dose, min (Esophagus, Cycle 1) | Absorbed Dose in Cycle 1, min (Esophagus, N = 16) | Absorbed Dose in Cycle 1, min [5] | Absorbed Dose, min (Eyes, Cycle 1) | Absorbed Dose in Cycle 1, min (Eyes, N = 16) | Absorbed Dose in Cycle 1, min [6] | Absorbed Dose, min (Gallbladder wall, Cycle 1) | Absorbed Dose in Cycle 1, min (Gallbladder wall, N = 16) | Absorbed Dose in Cycle 1, min [7] | Absorbed Dose, min (Heart wall, Cycle 1) | Absorbed Dose in Cycle 1, min (Heart wall, N = 16) | Absorbed Dose in Cycle 1, min [13] | Absorbed Dose, min (Lungs, Cycle 1) | Absorbed Dose in Cycle 1, min (Lungs, N = 16) | Absorbed Dose in Cycle 1, min [14] | Absorbed Dose, min (Osteogenic cells, Cycle 1) | Absorbed Dose in Cycle 1, min (Osteogenic cells, N = 16) | Absorbed Dose in Cycle 1, min [15]
0.81 Gy/GBq: Absorbed Dose in Cycle 1, max [8] | Absorbed Dose, max (Kidneys, Cycle 1) | Absorbed Dose in Cycle 1, max (Kidneys, N = 16)
0.02±0.02 Gy/GBq: mean red marrow absorbed dose (Cycle 1, remaining 20 patients, excluding six high-marrow-dose cases and the superscan patient)
0.01 Gy/GBq: Absorbed Dose in Cycle 1, min [1] | Absorbed Dose, min (Adrenals, Cycle 1) | Absorbed Dose in Cycle 1, min (Adrenals, N = 16) | Absorbed Dose in Cycle 1, Mean [2] | Absorbed Dose, Mean (Brain, Cycle 1) | Absorbed Dose, median (Brain, Cycle 1) | Absorbed Dose in Cycle 1, Mean (Brain, N = 16) | Absorbed Dose in Cycle 1, Mean [4] | Absorbed Dose, median (Esophagus, Cycle 1) | Absorbed Dose in Cycle 1, Mean (Esophagus, N = 16) | Absorbed Dose in Cycle 1, Mean [5] | Absorbed Dose, Mean (Eyes, Cycle 1) | Absorbed Dose, median (Eyes, Cycle 1) | Absorbed Dose in Cycle 1, Mean (Eyes, N = 16) | Absorbed Dose, median (Gallbladder wall, Cycle 1) | Absorbed Dose in Cycle 1, Mean [7] | Absorbed Dose, median (Heart wall, Cycle 1) | Absorbed Dose in Cycle 1, Mean (Heart wall, N = 16) | Absorbed Dose in Cycle 1, min [11] | Absorbed Dose, min (Left colon, Cycle 1) | Absorbed Dose in Cycle 1, min (Left colon, N = 16) | Absorbed Dose in Cycle 1, min [12] | Absorbed Dose, min (Liver, Cycle 1) | Absorbed Dose in Cycle 1, min (Liver, N = 16) | Absorbed Dose in Cycle 1, Mean [13] | Absorbed Dose, Mean (Lungs, Cycle 1) | Absorbed Dose, median (Lungs, Cycle 1) | Absorbed Dose in Cycle 1, Mean (Lungs, N = 16) | Absorbed Dose, median (Pancreas, Cycle 1)
0.37 Gy/GBq: Absorbed Dose, median (Kidneys, Cycle 1)
0.52 Gy/GBq: Absorbed Dose in Cycle 1, Mean [11] | Absorbed Dose in Cycle 1, Mean (Left colon, N = 16)
0.44±0.30 Gy/GBq: absorbed radiation dose, rectum (mean ± SD) [3]
0.19 Gy/GBq: Absorbed Dose in Cycle 1, max [14] | Absorbed Dose in Cycle 1, max (Osteogenic cells, N = 16)
0.41 Gy/GBq: Absorbed Dose in Cycle 1, Mean [8] | Absorbed Dose, Mean (Kidneys, Cycle 1) | Absorbed Dose in Cycle 1, Mean (Kidneys, N = 16) | Absorbed Dose, median (Left colon, Cycle 1)
0.08±0.12 Gy/GBq: mean red marrow (bone marrow) absorbed radiation dose (Cycle 1, image-based, L2-L4)
0.41±0.05 Gy/GBq: absorbed radiation dose, urinary bladder (mean ± SD) [3]
0.03 Gy/GBq: Absorbed Dose, median (Liver, Cycle 1)
0.05 Gy/GBq: Absorbed Dose, Mean (Osteogenic cells, Cycle 1)
0.40±0.36 Gy/GBq: absorbed radiation dose, lacrimal glands (mean ± SD) [3]
0.10 Gy/GBq: Absorbed Dose in Cycle 1, max [12] | Absorbed Dose, max (Liver, Cycle 1) | Absorbed Dose in Cycle 1, max (Liver, N = 16)
0.19±0.16 Gy/GBq: absorbed radiation dose, salivary glands (mean ± SD) (Cycle 1, target activity 7.4±10% GBq, patient 12-004 excluded)
0.29 Gy/GBq: Absorbed Dose, max (Osteogenic cells, Cycle 1)
0.41±0.15 Gy/GBq: absorbed radiation dose, kidneys (mean ± SD) [3]
0.40 Gy/GBq: Absorbed Dose, Mean (Lacrimal Glands, Cycle 1)
0.02 Gy/GBq: Absorbed Dose in Cycle 1, Mean [1] | Absorbed Dose, Mean (Adrenals, Cycle 1) | Absorbed Dose, median (Adrenals, Cycle 1) | Absorbed Dose in Cycle 1, Mean (Adrenals, N = 16) | Absorbed Dose, Mean (Esophagus, Cycle 1) | Absorbed Dose in Cycle 1, Mean [6] | Absorbed Dose, Mean (Gallbladder wall, Cycle 1) | Absorbed Dose in Cycle 1, Mean (Gallbladder wall, N = 16) | Absorbed Dose, Mean (Heart wall, Cycle 1) | Absorbed Dose, median (Osteogenic cells, Cycle 1) | Absorbed Dose in Cycle 1, Mean [15] | Absorbed Dose, Mean (Pancreas, Cycle 1)
0.07 Gy/GBq: Absorbed Dose in Cycle 1, max [2] | Absorbed Dose, max (Brain, Cycle 1) | Absorbed Dose in Cycle 1, max (Brain, N = 16) | Absorbed Dose in Cycle 1, max [4] | Absorbed Dose, max (Esophagus, Cycle 1) | Absorbed Dose in Cycle 1, max (Esophagus, N = 16) | Absorbed Dose in Cycle 1, max [5] | Absorbed Dose, max (Eyes, Cycle 1) | Absorbed Dose in Cycle 1, max (Eyes, N = 16) | Absorbed Dose in Cycle 1, max [6] | Absorbed Dose, max (Gallbladder wall, Cycle 1) | Absorbed Dose in Cycle 1, max (Gallbladder wall, N = 16) | Absorbed Dose in Cycle 1, max [7] | Absorbed Dose, max (Heart wall, Cycle 1) | Absorbed Dose in Cycle 1, max (Heart wall, N = 16) | Absorbed Dose in Cycle 1, max [13] | Absorbed Dose, max (Lungs, Cycle 1) | Absorbed Dose in Cycle 1, max (Lungs, N = 16) | Absorbed Dose in Cycle 1, max [15] | Absorbed Dose, max (Pancreas, Cycle 1)
0.47±0.31 Gy/GBq: absorbed radiation dose, left colon (mean ± SD) [3]
0.26 Gy/GBq: Absorbed Dose, median (Lacrimal Glands, Cycle 1)
0.04 Gy/GBq: Absorbed Dose in Cycle 1, min [9] | Absorbed Dose, min (Lacrimal Glands, Cycle 1) | Absorbed Dose in Cycle 1, min [10] | Absorbed Dose in Cycle 1, Mean [12] | Absorbed Dose, Mean (Liver, Cycle 1) | Absorbed Dose in Cycle 1, Mean (Liver, N = 16) | Absorbed Dose in Cycle 1, Mean [14] | Absorbed Dose in Cycle 1, Mean (Osteogenic cells, N = 16)
0.39 Gy/GBq: Absorbed Dose in Cycle 1, Mean [9] | Absorbed Dose in Cycle 1, Mean [10]
1.53 Gy/GBq: Absorbed Dose in Cycle 1, max [11] | Absorbed Dose, max (Left colon, Cycle 1) | Absorbed Dose in Cycle 1, max (Left colon, N = 16)
0.47 Gy/GBq: Absorbed Dose, Mean (Left colon, Cycle 1)
0.08 Gy/GBq: Absorbed Dose in Cycle 1, max [1] | Absorbed Dose, max (Adrenals, Cycle 1) | Absorbed Dose in Cycle 1, max (Adrenals, N = 16)
1.19 Gy/GBq: Absorbed Dose in Cycle 1, max [9] | Absorbed Dose, max (Lacrimal Glands, Cycle 1) | Absorbed Dose in Cycle 1, max [10]
0.17 Gy/GBq: Absorbed Dose in Cycle 1, min [8] | Absorbed Dose, min (Kidneys, Cycle 1) | Absorbed Dose in Cycle 1, min (Kidneys, N = 16)
